Assay results taken from PubChem BioAssay (NCI).
Values joined by “and” are separate entries in the source; they are usually repeats but may differ in a detail not shown here. Equal values may be shown once.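 Interpolation was linear, between the two tested concentrations surrounding the appropriate level; five concentrations were tested over 48 hours in 96-well plates. GI50 marks 50% less growth. Definition used: TGI = concentration required for complete inhibition of growth.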

Key:
Assay in all cases: DTP human tumour cell line panel, 48 h
MDA-MB-435 = test system: MDA-MB-435
COLO 205 colon = test system: COLO 205 colon
SF-295 CNS = test system: SF-295 CNS
RXF 393 renal = test system: RXF 393 renal
ACHN renal = test system: ACHN renal
HOP-92 NSCLC = test system: HOP-92 NSCLC
T-47D breast = test system: T-47D breast
SK-MEL-5 melanoma = test system: SK-MEL-5 melanoma
HOP-62 NSCLC = test system: HOP-62 NSCLC
HCT-15 colon = test system: HCT-15 colon

SMILES	GI50 (MDA-MB-435) [µM]	TGI (MDA-MB-435) [µM]	GI50 (COLO 205 colon)	TGI (COLO 205 colon)	GI50 (SF-295 CNS) [µM]	TGI (SF-295 CNS)	GI50 (RXF 393 renal) [µM]	TGI (RXF 393 renal)	GI50 (ACHN renal) [µM]	TGI (ACHN renal)	GI50 (HOP-92 NSCLC) [µM]	TGI (HOP-92 NSCLC)	GI50 (T-47D breast) [µM]	TGI (T-47D breast) [µM]	GI50 (SK-MEL-5 melanoma) [µM]	TGI (SK-MEL-5 melanoma) [µM]	GI50 (HOP-62 NSCLC) [µM]	TGI (HOP-62 NSCLC) [µM]	GI50 (HCT-15 colon)	TGI (HCT-15 colon) [µM]
O=S(=O)(/N=c1\scc(-c2ccccc2)n1-c1ccccc1)c1ccc(N2N=C3c4ccccc4CC3C2c2ccc(Cl)cc2)cc1 (stereo not given)	24.2	> 100	23.6 µM	54.9 µM	40.7	> 100 µM	42	> 100 µM	40.1	> 100 µM	38.6	> 100 µM	> 100	> 100	25.2	75	93.9	> 100	47.7 µM	> 100
COc1cc(/C=C/C(=O)/C=C/c2cc(OC)c3c(c2)OCO3)cc2c1OCO2	1.92	4.22	4.86 µM	> 100 µM	11.3	> 100 µM	2.65	6.57 µM	7.25	> 100 µM	58.5	> 100 µM	9.62	> 100	5.59	> 100	4.46	> 100	4.42 µM	> 100
COc1ccc2c(c1)C(=O)/C(=C/c1cccc(OCC(=O)c3ccccc3)c1)CC2	2.09	10.5	88.5 µM	> 100 µM	10.3	> 100 µM	0.0502	8.05 µM	31.8	> 100 µM		0.792 µM	7.05	> 100	4.14	16.5	42.5	> 100	7.11 µM	> 100
Cc1ccc(S(=O)(=O)SC/C=C\CSS(=O)(=O)c2ccc(C)cc2)cc1		27.6	8.94 µM and 18.8 µM	33.1 µM and 33.6 µM		> 95.7 µM and 50.7 µM		77.1 µM and 36.6 µM		> 100 µM and 83.6 µM		> 72.7 µM and 37.9 µM		> 100		> 100		> 100	6.16 µM and 43.4 µM	> 100
CCOc1ccccc1CCN=C1NC(=O)/C(=C/c2ccc3ncccc3c2)S1	0.491	1.71	0.735 µM	3.07 µM	0.672	> 6 µM	1.31	10.5 µM	1.45	> 25 µM	3.28	14.6 µM	1.46	> 25	2.05	15.2	1.44	> 17.6	0.777 µM	> 25
O=C(NCC1CC1)c1ccc(-c2cccc(C(=O)NC3CC3)c2)cc1	> 25	> 25	> 25 µM	> 25 µM	> 25	> 25 µM	> 25	> 25 µM	> 25	> 25 µM	6.66	> 25 µM	> 25	> 25	> 25	> 25	> 25	> 25	> 25 µM	> 25
CCc1c2c(nc3ccc(OCc4ccc(B(O)O)cc4)cc13)-c1cc3c(c(=O)n1C2)COC(=O)[C@]3(O)CC	0.076	3.5	0.0855 µM	8.46 µM	< 0.01	7.53 µM	0.0232	0.142 µM	< 0.0179	0.589 µM	0.0366	4.36 µM	< 0.01	> 21.1	0.0244	0.173	< 0.01		0.353 µM	> 43
